In ChEMBL document CHEMBL3526096, “Species differences in biliary clearance and possible relevance of hepatic uptake and efflux transporters involvement” (Drug Metab Dispos, 2013):

What was measured:
[1] = Drug excretion in iv dosed rat assessed as compound excreted into bile; type: ADME, organism-based; details: read-out: Drug excretion
[2] = Drug excretion in human assessed as compound excreted into bile at 2 gm, iv after 24 hrs by T-tube method; type: ADME, organism-based; details: read-out: Drug excretion
[3] = Drug excretion in human assessed as compound excreted into bile at 50 mg, iv after 24 hrs by T-tube method; type: ADME, organism-based; details: read-out: Drug excretion
Homo sapiens [4] = experiment: Unbound biliary clearance in iv dosed human after 24 hrs by T-tube method; type: ADME, organism-based, Bile; details: in vivo
[5] = Drug excretion in iv dosed human assessed as compound excreted into bile after 24 hrs by T-tube method; type: ADME, organism-based; details: read-out: Drug excretion
Canis familiaris [6] = experiment: Unbound biliary clearance in iv dosed dog; type: ADME, organism-based, Canis lupus familiaris, Bile; details: in vivo
Rattus norvegicus [7] = experiment: Unbound biliary clearance in iv dosed rat; type: ADME, organism-based, Bile; details: in vivo
Canis familiaris [8] = experiment: Total biliary clearance in iv dosed dog; type: ADME, organism-based, Canis lupus familiaris, Bile; details: in vivo
Homo sapiens [9] = experiment: Total biliary clearance in iv dosed human after 24 hrs by T-tube method; type: ADME, organism-based, Bile; details: in vivo
Rattus norvegicus [10] = experiment: Total biliary clearance in iv dosed rat; type: ADME, organism-based, Bile; details: in vivo
[11] = Drug excretion in iv dosed Sprague-Dawley rat assessed as compound excreted into bile; type: ADME, organism-based; details: read-out: Drug excretion
Rattus norvegicus [12] = experiment: Unbound biliary clearance in iv dosed Sprague-Dawley rat; type: ADME, organism-based, Bile; details: in vivo
Homo sapiens [13] = experiment: Total biliary clearance in iv dosed human after 72 hrs by T-tube method; type: ADME, organism-based, Bile; details: in vivo
Homo sapiens [14] = experiment: Unbound biliary clearance in iv dosed human after 72 hrs by T-tube method; type: ADME, organism-based, Bile; details: in vivo
Rattus norvegicus [15] = experiment: Total biliary clearance in iv dosed Sprague-Dawley rat; type: ADME, organism-based, Bile; details: in vivo
[16] = Drug excretion in iv dosed human assessed as compound excreted into bile after 72 hrs by T-tube method; type: ADME, organism-based; details: read-out: Drug excretion
Homo sapiens [17] = experiment: Total biliary clearance in iv dosed human after 7 hrs by duodenal perfusion method; type: ADME, organism-based, Bile; details: in vivo
[18] = Drug excretion in iv dosed human assessed as compound excreted into bile after 7 hrs by duodenal perfusion method; type: ADME, organism-based; details: read-out: Drug excretion
Homo sapiens [19] = experiment: Unbound biliary clearance in iv dosed human after 7 hrs by duodenal perfusion method; type: ADME, organism-based, Bile; details: in vivo
[20] = Drug excretion in iv dosed dog assessed as compound excreted into bile; type: ADME, organism-based, Canis lupus familiaris; details: read-out: Drug excretion
[21] = Drug excretion in human assessed as compound excreted into bile at 400 mg, po after 24 hrs by T-tube method
[22] = Drug excretion in rat assessed as compound excreted into bile at 10 mg/kg, iv
Homo sapiens [23] = experiment: Total biliary clearance in human at 1 nmol/l, iv after 8 hrs by duodenal perfusion method; type: ADME, organism-based, Bile; details: in vivo
[24] = Drug excretion in human assessed as compound excreted into bile at 1 nmol/l, iv after 8 hrs; type: ADME, organism-based; details: read-out: Drug excretion
Homo sapiens [25] = experiment: Unbound biliary clearance in human at 1 nmol/l, iv after 8 hrs; type: ADME, organism-based, Bile; details: in vivo
[26] = Drug excretion in human assessed as compound excreted into bile at 60 mg, po after 12 hrs by fecal extraction method
[27] = Drug excretion in iv dosed Wistar rat assessed as compound excreted into bile; type: ADME, organism-based; details: read-out: Drug excretion
Homo sapiens [28] = experiment: Unbound biliary clearance in iv dosed human after 8 hrs by T-tube method; type: ADME, organism-based, Bile; details: in vivo
[29] = Drug excretion in iv dosed human assessed as compound excreted into bile after 8 hrs by T-tube method; type: ADME, organism-based; details: read-out: Drug excretion
Rattus norvegicus [30] = experiment: Total biliary clearance in iv dosed Wistar rat; type: ADME, organism-based, Bile; details: in vivo
Rattus norvegicus [31] = experiment: Unbound biliary clearance in iv dosed Wistar rat; type: ADME, organism-based, Bile; details: in vivo
Homo sapiens [32] = experiment: Total biliary clearance in iv dosed human after 8 hrs by T-tube method; type: ADME, organism-based, Bile; details: in vivo

In the case of `CCN1CCN(C(=O)N[C@@H](C(=O)N[C@@H]2C(=O)N3C(C(=O)O)=C(CSc4nnnn4C)CS[C@H]23)c2ccc(O)cc2)C(=O)C1=O` [CEFOPERAZONE], the dose excreted [1] is reported as 86% and the dose excreted at 24 h [2] is reported as 12%.

Compound `CNC(=C[N+](=O)[O-])NCCSCc1ccc(CN(C)C)o1` [RANITIDINE] has a dose excreted [1] of 5% and a dose excreted at 24 h [3] of 1.5%.

With `CN(Cc1cnc2nc(N)nc(N)c2n1)c1ccc(C(=O)N[C@@H](CCC(=O)O)C(=O)O)cc1` [METHOTREXATE] the CL free (Homo sapiens [4]) was 1.108 mL/min/kg, the dose excreted [1] was 64% and the dose excreted at 24 h [5] was 10%. The CL free (Canis familiaris [6]) was 0.344 mL/min/kg, the CL free (Rattus norvegicus [7]) was 12.47 mL/min/kg and the CL (Canis familiaris [8]) was 0.217 mL/min/kg. For the same compound, the CL (Homo sapiens [9]) was 0.048 mL/min/kg and the CL (Rattus norvegicus [10]) was 9.6 mL/min/kg.

Compound `CC[C@]1(O)C[C@H]2CN(CCc3c([nH]c4ccccc34)[C@@](C(=O)OC)(c3cc4c(cc3OC)N(C=O)[C@H]3[C@@](O)(C(=O)OC)[C@H](OC(C)=O)[C@]5(CC)C=CCN6CC[C@]43[C@@H]65)C2)C1` [VINCRISTINE] has a dose excreted [11] of 43%, a CL free (Rattus norvegicus [12]) of 84.87 mL/min/kg and a CL (Homo sapiens [13]) of 0.209 mL/min/kg. The CL free (Homo sapiens [14]) was 0.523 mL/min/kg, the CL (Rattus norvegicus [15]) was 33.1 mL/min/kg and the dose excreted at 72 h [16] was 10%.

Compound `CO[C@@]1(NC(=O)C2SC(=C(C(N)=O)C(=O)O)S2)C(=O)N2C(C(=O)O)=C(CSc3nnnn3C)CS[C@@H]21` (some centres not stated) [CEFOTETAN] has a dose excreted [1] of 48%, a CL free (Canis familiaris [6]) of 1.141 mL/min/kg and a CL free (Rattus norvegicus [7]) of 8.771 mL/min/kg. It also gave a CL (Canis familiaris [8]) of 0.696 mL/min/kg, a CL (Homo sapiens [17]) of 0.048 mL/min/kg and a dose excreted at 7 h [18] of 11%. The CL free (Homo sapiens [19]) was 0.32 mL/min/kg, the CL (Rattus norvegicus [10]) was 6.14 mL/min/kg and the dose excreted [20] was 17%.

Compound `O=C(O)c1cn(C2CC2)c2cc(N3CCNCC3)c(F)cc2c1=O` [CIPROFLOXACIN] has a dose excreted at 24 h [21] of 0.5% and a dose excreted [22] of 10%.

For `C[C@H]1O[C@@H](O[C@H]2[C@@H](O)C[C@H](O[C@H]3[C@@H](O)C[C@H](O[C@H]4CC[C@@]5(C)[C@H](CC[C@@H]6[C@@H]5C[C@@H](O)[C@]5(C)[C@@H](C7=CC(=O)OC7)CC[C@]65O)C4)O[C@@H]3C)O[C@@H]2C)C[C@H](O)[C@@H]1O` [DIGOXIN], the CL (Homo sapiens [23]) was 1.595 mL/min/kg, the dose excreted at 8 h [24] was 41% and the CL free (Canis familiaris [6]) was 2.68 mL/min/kg. For the same compound, the dose excreted [11] was 31%, the CL free (Rattus norvegicus [12]) was 4.329 mL/min/kg and the CL (Canis familiaris [8]) was 1.313 mL/min/kg. The CL (Rattus norvegicus [15]) was 3.03 mL/min/kg, the dose excreted [20] was 7% and the CL free (Homo sapiens [25]) was 2.279 mL/min/kg.

`CC(C)(C(=O)O)c1ccc(C(O)CCCN2CCC(C(O)(c3ccccc3)c3ccccc3)CC2)cc1` (configuration not stated) [FEXOFENADINE] gave a dose excreted at 12 h [26] of 23% and a dose excreted [27] of 28%.

For `CC1=C(C(=O)O)N2C(=O)[C@@H](NC(=O)[C@H](N)c3ccccc3)[C@H]2SC1` [CEPHALEXIN ANHYDROUS], the dose excreted [1] was 32%.

`O=C([O-])Cc1ccccc1Nc1c(Cl)cccc1Cl.[Na+]` [DICLOFENAC SODIUM] showed a CL free (Homo sapiens [28]) of 8.4 mL/min/kg, a dose excreted at 8 h [29] of 1% and a CL (Rattus norvegicus [30]) of 0.85 mL/min/kg. It also gave a CL free (Rattus norvegicus [31]) of 94.44 mL/min/kg, a CL (Homo sapiens [32]) of 0.042 mL/min/kg and a dose excreted [27] of 5%.
